Several values for one entry are separate records, joined by “and”; a condition that tells them apart may be missing. Identical values can stand only once. Like-named read-outs stand apart in the source and are kept apart here.
Legend:
[1] = Protein binding analysis (RED), human plasma; assay type: in vitro ADME; conditions: 5 μM
Protocol: (§1) The protein binding was assessed in plasma of Human, male balb-c mice, male Wistar Han rat, male Göttingen minipig by rapid equilibrium dialysis (RED) devices. After the plasma and buffer phosphate 50 mM pH7.4 were equilibrated at 37° C., the compound was added to plasma to reach a final concentration of 5 μM. An aliquot of plasma was withdrawn immediately. Equilibration under mild agitation was continued for 4 h. The plasma and buffer were sampled and samples were quenched with 4 volumes of acetonitrile and centrifuged. Supernatant was quantified in HPLC/MS/MS to calculate the recovery and the percentage of compound dissolved in the buffer (unbound) and bound to plasma proteins.

[2] = Protein binding analysis (RED), rat plasma; assay type: in vitro ADME, male Wistar Han rat; conditions: 5 μM
Protocol: as §1

[3] = Human skin ex vivo: flux through skin and dermis concentration (Franz cells); assay type: in vitro ADME; conditions: PG/H2O cream 1 mg/mL, human skin
IL6 = test: hWB assay, IL6; assay type: cell-based, h
[4] = In vivo pharmacokinetic analysis in rat (iv); parameters: species or system male Wistar Han rat; conditions: iv 1 mg/kg
Protocol: (§2) One male Wistar Han rat. Compound was administered intravenously to fed animal at a target dose of 1 mg/kg, dose volume: 2 mL/kg, in DMSO/hydroxypropyl-beta-cyclodextrin 20% in phosphate buffer 60 mM pH 7 (5:95). Blood samples were collected at various time points. Blood samples were then assayed using a method based upon protein precipitation with acetonitrile followed by LC/MS/MS analysis. Non-compartmental methods were used for pharmacokinetic analysis of blood concentration versus time data

[5] = Intrinsic clearance in hepatocytes, human; assay type: in vitro ADME; conditions: 2.5 μM
Protocol: (§3) The intrinsic clearance was assessed in cryopreserved Hepatocytes obtained by Human livers donors of mix gender pooled together, male balb-c mouse, male Wistar Han rats and male Göttingen minipig, by looking at the parent compound disappearance. The incubations were performed using a final concentration of viable cells of 1 million/ml (viability above 70%) and test item of 2.5 μM. Incubations were followed up to 2 h. Aliquotes were withdrawn at different time points and reaction quenched with acetonitrile. After centrifugation the supernatant was analyzed by HPLC/MS to quantify the remaining amount of parent in comparison with time 0. The clearance was calculated by fitting the log of the percentage remaining with Graphpad Prism ver.7.

Kinetic aq sol = assay type: physicochemical
[6] = Systemic level in PD/IL6 mouse topical dose response; assay type: in vivo, BALB/c ByJ Rj mice; conditions: topical 10 mM
Protocol: Skin samples were harvested 15 min.

44 targets = assay type: binding
Protocol: An in vitro pharmacology assay was conducted to assess the capability of the compounds to interact with different pharmacological targets when tested at 10 μM in different binding and enzyme/uptake assays. The included targets are indicative of potential effects in major organs and drug-drug interactions.
Compound binding was calculated as a % inhibition of the binding of a radioactively labelled ligand specific for each target. […] […].

[7] = Intrinsic clearance in hepatocytes, rat; assay type: in vitro ADME, male Wistar Han rats; conditions: 2.5 μM
Protocol: as §3

[8] = test system: IL-6 induced pSTAT3 in TF-1 cells; test: In vitro cellular pSTAT3 assay, IL-6 stimulated TF-1 cells; assay type: cell-based; conditions: Homo sapiens
Protocol: . The flasks were incubated overnight at 37° C., 5% CO2 then seeded in 96 well plates (TPP) at 150000 cells/well in 25 μL. Cells were treated with 5 IL/well of serially diluted compounds in DMSO (final DMSO concentration of 0.1%) and incubated for 30 min at 37° C. IL-6 (6 IL/well, 100 ng/ml as a final concentration in Opti-MEM, Thermofisher, PHC0066) was added to the cell plates and followed by a 30-min incubation at 37° C. Next, cells were lysed by adding 12 μl/well of 4× supplemented lysis buffer, incubated at 4° C. for 30 min under agitation. The samples were processed for the pSTAT3 detection as described by the manufacturer (MSD) with 25 μl of non-diluted cell lysates tested. Compounds were tested in simplicates over 10 three-step dilutions in order to determine their IC50 values.

[9] = Intrinsic clearance in hepatocytes, mouse; assay type: in vitro ADME, male balb-c mouse; conditions: 2.5 μM
Protocol: as §3

[10] = In vivo pharmacokinetic analysis in minipig (iv); parameters: species or system male Göttingen minipigs; conditions: iv 1 mg/kg
Protocol: as §2, with “Three” for “One”, “Göttingen minipigs.” for “Wistar Han rat.”, “animals” for “animal”, “volume 1” for “volume: 2”, “DMSO: hydroxypropyl-p-cyclodextrin” for “DMSO/hydroxypropyl-beta-cyclodextrin”, “data.” for “data”

[11] = Protein binding analysis (RED), mouse plasma; assay type: in vitro ADME, male balb-c mice; conditions: 5 μM
Protocol: as §1

[12] = Protein binding analysis (RED), minipig plasma; assay type: in vitro ADME; conditions: male, Göttingen, pH 7.4, read-out: minipig FU
Protocol: as §1

[13] = Thermodynamic sol PG_H2O pH 6 2/8; assay type: physicochemical; conditions: amorphous material
[14] = Intrinsic clearance in hepatocytes, minipig; assay type: in vitro ADME, male Göttingen minipig; conditions: 2.5 μM
Protocol: as §3

CYP2D6 = molecular target: T1, CYP2D6 (Homo sapiens, UniProt P10635); test: CYP2D6 inhibition in human liver microsomes; assay type: in vitro ADME; conditions: dextromethorphan, CRL data
T1 construct: Human pooled liver microsomes of mixed gender (mainly Caucasian); from tissue; host or cells: pooled human liver microsomes
Protocol: After 5 min at 37° C. incubations were started with NADPH and prolonged for 10 min. The test compound was tested up to 30 μM keeping the final concentration of organic solvent was below 0.5%. The final concentration of microsomes was 0.1 mg/ml to ensure linearity during the time of the incubation. The reaction was quenched by adding 3 volume of acetonitrile. After centrifugation the supernatant was analyzed by HPLC/MS/MS for the formation of des-methyldextromethorphane selectively produced by CYP2D6 and 1′hydroxymidazolam or 6p-hydroxytestosterone, selectively produced by CYP3A. IC50 was calculated with Graphpad Prism v.7 comparing the amount of metabolite produced in presence of the test compound with that produced in absence of test item.

SF logD = assay type: physicochemical
Chrom logD pH 7.4 = assay type: physicochemical

T1 sequence (P10635 whole entry): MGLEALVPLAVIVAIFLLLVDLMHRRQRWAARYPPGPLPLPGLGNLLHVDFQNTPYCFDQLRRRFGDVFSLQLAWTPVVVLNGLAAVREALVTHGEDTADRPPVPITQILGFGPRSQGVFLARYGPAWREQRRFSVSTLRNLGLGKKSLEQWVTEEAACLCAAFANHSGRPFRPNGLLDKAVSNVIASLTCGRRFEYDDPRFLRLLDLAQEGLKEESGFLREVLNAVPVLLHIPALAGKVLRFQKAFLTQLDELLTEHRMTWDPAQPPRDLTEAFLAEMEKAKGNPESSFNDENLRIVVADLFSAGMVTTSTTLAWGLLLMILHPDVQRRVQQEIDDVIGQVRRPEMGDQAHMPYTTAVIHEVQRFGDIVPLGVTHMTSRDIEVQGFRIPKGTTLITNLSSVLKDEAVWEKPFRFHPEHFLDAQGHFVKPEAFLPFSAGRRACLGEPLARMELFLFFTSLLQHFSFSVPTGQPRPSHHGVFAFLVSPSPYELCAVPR

N#CC[C@H](C1CCCC1)n1cc(-c2ncnc3[nH]ccc23)cn1 [Ruxolitinib, reference compound]
hFU [1]: 4%
rFU [2]: 13%
measured flux 6-24 hr [3]: 5.3 ng/cm^2/hr
IC50 (IL6): 6900 nM
iv PK rat: ER [4]: 51%
clearance ([4]; male, Wistar Han, whole blood, read-out: iv PK rat: Cl): 40 mL/min/kg
Intr. Clear. h heps [5]: 4.4 microL/min/10 6 cells
Kinetic aq sol (Kinetic aq sol): 232/ND (no cristalline microM
PD/IL6 mouse top DR 0.01-10 mM (PG/Acetone/Transcutol): Systemic level @10 mM - 2 hrs [6]: 81 nM
Safety panel (Cerep): 44 targets % inh @10 microM Nb of targets > 50% inh (44 targets): 0/44
Intr. Clear. rheps [7]: 300 microL/min/10 6 cells
IC50 ([8]; TF-1, read-out: Cellular Assay: IC50 IL6): 8 nM
IC50 ([8]; TF-1, read-out: Free IC50): 200 nM
Intr. Clear. mheps [9]: 150 microL/min/10 6 cells
iv PK minipig: ER [10]: 68%
clearance ([10]; male, Göttingen, whole blood, read-out: iv PK minipig: Cl): 19 mL/min/kg
mFU [11]: 7.7%
fraction unbound at 4 h, 5 μM [12]: 0.25
Thermodynamic sol PG_H2O pH 6 2/8 [13]: 1 mM and 0.3 mg/mL
Intr. Clear. minipig heps [14]: 141 microL/min/10 6 cells
IC50 (CYP2D6): > 30000 nM
logD (SF logD): 2.3
chromatographic logD (Chrom logD pH 7.4): 1.5
